In patent US20250332173A1, “COMPOUNDS AND METHODS FOR MODULATING NUCLEIC ACID SPLICING” (REMIX THERAPEUTICS INC., priority 2021, published 2025):
Read-outs that look alike come from different tables or passages of the source. Blank lines part the entries; values can stand above or below the molecule they belong to.

System: MYB mRNA
Experiment: RT-qPCR splicing assay, MYB canonical junction (CJ) and alternative junction (AJ) mRNA
Format: cell-based, human
Details: Homo sapiens; for AC50: increase in MYB alternative junction (AJ) mRNA, read-out: MYB AJ AC50
Summary of the method: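 Following a 24-hour incubation of A673 or K562 cells with serially diluted compound (3-fold steps, highest final 10 uM), the lysates undergo cDNA synthesis plus qPCR. Canonical and alternative junctions are each quantified against PPIA, GAPDH or GUSB.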

[1] = Table 5 panel, canonical junction qPCR, compound concentration having 50% response in CJ decrease, read-out: MYB IC50 (decrease in CJ mRNA levels)
[2] = decrease in MYB canonical junction (CJ) mRNA, RT-qPCR, read-out: MYB CJ IC50

Structure (SMILES): Cc1cn2nc(-c3cc(F)c4c(=O)n([C@@H]5CCNC6(CC6)C5)ncc4c3)cc(C)c2n1 [Compound 446]
- IC50 [1]: < 100 nM
- IC50 [2]: < 100 nM
- AC50 (RT-qPCR): < 100 nM

Structure (SMILES): Cn1cc2c(n1)CCN(c1cc(F)c3c(=O)n(C4CCNCC4)cnc3c1)C2 [Compound 365, 5-fluoro-7-(2-methyl-2,4,6,7-tetrahydro-5H-pyrazolo[4,3-c]pyridin-5-yl)-3-(piperidin-4-yl)quinazolin-4(3H)-one]
- IC50 [1]: 1000 to 10000 nM
- IC50 [2]: 1000 to 10000 nM
- AC50 (RT-qPCR): 1000 to 10000 nM

Structure (SMILES): Cc1cc(-c2ccc3c(=O)n(C4CCN(C)CC4)cnc3n2)cc2cn(C)nc12 [Compound 173]
- IC50 [1]: > 10000 nM
- IC50 [2]: > 10000 nM
- AC50 (RT-qPCR): > 10000 nM

Structure (SMILES): CN1CCC(Nc2ccc3c(=O)n(-c4ccc5nn(C)cc5c4)cnc3c2)CC1 [Compound 163]
- IC50 [1]: 1000 to 10000 nM
- IC50 [2]: > 10000 nM
- AC50 (RT-qPCR): 1000 to 10000 nM

Structure (SMILES): Cn1cc2cc(-c3cc(F)c4c(=O)n(C5CCNC6(CC6)C5)ccc4c3)c(O)cc2n1 (stereo not drawn) [Compound 414, 2-{4-azaspiro[2.5]octan-7-yl}-8-fluoro-6-(6-hydroxy-2-methylindazol-5-yl)isoquinolin-1-one]
- IC50 [1]: 1000 to 10000 nM
- IC50 [2]: 1000 to 10000 nM
- AC50 (RT-qPCR): 1000 to 10000 nM

Structure (SMILES): Cc1cc(-c2cc(F)c3c(=O)n(C4CCNC5(CC5)C4)ccc3c2)cc2cn(C)nc12 (stereo not drawn) [Compound 415, 2-{4-azaspiro[2.5]octan-7-yl}-6-(2,7-dimethylindazol-5-yl)-8-fluoroisoquinolin-1-one]
- IC50 [1]: < 100 nM
- IC50 [2]: < 100 nM
- AC50 (RT-qPCR): < 100 nM

Structure (SMILES): CC(=O)c1cc(-c2cc(F)c3c(=O)n(C4CCNCC4)ccc3c2)cn2cc(C)nc12 [Compound 393, 6-{8-acetyl-2-methylimidazo[1,2-a]pyridin-6-yl}-8-fluoro-2-(piperidin-4-yl)isoquinolin-1-one 2,2,2-trifluoroacetate]
- IC50 [1]: 100 to 1000 nM
- IC50 [2]: 100 to 1000 nM
- AC50 (RT-qPCR): 100 to 1000 nM

Further lines, with some results ahead:

- IC50 [1]: > 10000 nM
- IC50 [2]: > 10000 nM
Structure (SMILES): Cc1cn2cc(-c3ccc4c(=O)n([C@H]5CCNC5)cc(C)c4c3)cc(C#N)c2n1 [Compound 456, (S)-2-methyl-6-(4-methyl-1-oxo-2-(pyrrolidin-3-yl)-1,2-dihydroisoquinolin-6-yl)imidazo[1,2-a]pyridine-8-carbonitrile]
- AC50 (RT-qPCR): > 10000 nM

- IC50 [1]: > 10000 nM
- IC50 [2]: > 10000 nM
Structure (SMILES): Cc1cn2cc(-n3ccc4cc(N5C[C@@H](C)N[C@@H](C)C5)ccc4c3=O)nc(C)c2n1 [Compound 454, 2-{2,8-dimethylimidazo[1,2-a]pyrazin-6-yl}-6-[(3R,5S)-3,5-dimethylpiperazin-1-yl]isoquinolin-1-one]
- AC50 (RT-qPCR): > 10000 nM

- IC50 [1]: > 10000 nM
- IC50 [2]: > 10000 nM
Structure (SMILES): Cc1cn2c(n1)CCC(c1ccc3c(=O)n(C4CCNCC4)ccc3c1)C2 (stereo not drawn) [Compound 453, 6-{2-methyl-5H,6H,7H,8H-imidazo[1,2-a]pyridin-6-yl}-2-(piperidin-4-yl)isoquinolin-1-one]
- AC50 (RT-qPCR): > 10000 nM

- IC50 [1]: < 100 nM
- IC50 [2]: < 100 nM
Structure (SMILES): Cc1cn2nc(-c3cc4ccn(C5CCNCC5)c(=O)c4cc3O)cc(C)c2n1 [Compound 448, 6-{2,8-dimethylimidazo[1,2-b]pyridazin-6-yl}-7-hydroxy-2-(piperidin-4-yl)isoquinolin-1-one]
- AC50 (RT-qPCR): < 100 nM
